Assay results as given in ChEMBL document CHEMBL1145519, “Exploitation of structural and regulatory diversity in glutamate racemases” (Nature, 2007).
Active and inactive are the calls of the source. The rule behind the calls is not given here.

Columns and labels:
Helicobacter pylori = experiment: Increase in UDP-MurNAc-Ala level in Helicobacter pylori; assay type: functional, organism-based

Description for Enterococcus faecium: Activity of Enterococcus faecium MurI
Description for Escherichia coli: Activity of Escherichia coli MurI
Description for Staphylococcus aureus: Activity of Staphylococcus aureus MurI

N[C@@H](CCC(=O)O)C(=O)O
Km (Staphylococcus aureus): 4600 µM
kcat (Staphylococcus aureus): 8.5 s⁻¹
Km (Escherichia coli): 1200 µM
kcat (Escherichia coli): 12.2 s⁻¹
Km (Enterococcus faecium): 1100 µM

CC(C)Cn1c(=O)n(C)c(=O)c2c(-c3ccncc3)n(Cc3cccc4ccccc34)nc21
Activity (Helicobacter pylori): Active

N[C@H](CCC(=O)O)C(=O)O
Km (Staphylococcus aureus): 140 µM
kcat (Staphylococcus aureus): 0.567 s⁻¹
Km (Escherichia coli): 2100 µM
kcat (Escherichia coli): 43.3 s⁻¹
Km (Enterococcus faecium): 240 µM
